Data set [1] concerns alveolar human lung cancer A549. The following applies: A549 cell line, reported in the background; cited from earlier work.
The subject of data set [2] is protein carbonyl (P. carbonyl). Nature of the data set: Protein carbonyl content in liver homogenate, DEN/2-AAF hepatocarcinogenesis model. The class given is in vivo, albino Wistar rats. The settings on record: mean±SEM, 8 rats. The method, then:
(§1) The experimental hepatocarcinogenesis model was developed according to a protocol by […] et al. that was adapted for our purposes. To initiate and promote hepatocarcinogenesis, diethylnitrosamine (DEN) and 2-acetylaminofluorene (2-AAF) were used, respectively. For hepatocarcinogenesis initiation in this model, a single DEN dose (200 mg/kg b.wt.) dissolved in saline was injected intraperitoneally. After initiation, all rats underwent one period of 5-days fasting, as mitotic proliferative stimuli. To promote hepatocarcinogenesis, 2-acetylaminofluorene (2-AAF) was introduced in the form of six daily intragastric doses (30 mg/kg in 1% Tween 80); two weeks after DEN treatment. […] at doses of 25 mg/kg by weight (b.wt.) and 50 mg/kg b.wt, was administrated orally to rats. These doses have been reported to suppress chemically-induced oxidative damage in rats. A total of 40 adult male albino Wistar rats were randomly divided into […] (n=8) and were subjected to different treatments. Group 1 (control) was orally administered distilled water (5 ml/kg b.wt.) throughout the experimental duration and were injected with a single dose of saline. Group 2 ([…] only) was subjected to a safranal dose (50 mg/kg b.wt.) through oral administration for the duration of the experimental period. Hepatocarcinogenesis was induced by DEN and promoted by 2-AAF, as reported previously, in group 3 (HCC). […] Glutathione (GSH) content was determined by analyzing liver homogenates, according to the method of Van Dooran et al. The assay depends on measuring yellow 5-thiol-2-nitrobenzoate absorbance at 412 nm. Glutathione-S-transferase (GST) activity was determined using the method of Habig et al. GST catalyzes the conjugation of GSH thiol group with 1-Chloro-2,4-dinitrobenzene (CDNB), which can be measured by determining the increase in absorbance at 340 nm. […] CAT decomposes hydrogen peroxide (H2O2) to oxygen and water; therefore, the activity of CAT was evaluated according to by the exponential decomposition of H2O2 at 240 nm. […] UV-160-Shimadzu recording spectrophotometer was used to record absorbances. […]

A further data set has as its system catalase (CAT). As to the kind of experiment: Catalase activity in liver homogenate, DEN/2-AAF hepatocarcinogenesis model. The class given is in vivo, albino Wistar rats. The settings on record: mean±SEM, 8 rats. The method, then:
as §1

Another data set relates to Ki-67. Nature of the data set: Immunohistochemical staining of liver sections, Ki-67 (cell proliferation). The class given is in vivo, albino Wistar rats. The method, then: The experimental hepatocarcinogenesis model was developed according to a protocol by Espandiaria et al. that was adapted for our purposes. To initiate and promote hepatocarcinogenesis, diethylnitrosamine (DEN) and 2-acetylaminofluorene (2-AAF) were used, respectively. For hepatocarcinogenesis initiation in this model, a single DEN dose (200 mg/kg b.wt.) dissolved in saline was injected intraperitoneally. After initiation, all rats underwent one period of 5-days fasting, as mitotic proliferative stimuli. To promote hepatocarcinogenesis, 2-acetylaminofluorene (2-AAF) was introduced in the form of six daily intragastric doses (30 mg/kg in 1% Tween 80); two weeks after DEN treatment.
Safranal at doses of 25 mg/kg by weight (b.wt.) and 50 mg/kg b.wt, was administrated orally to rats. These doses have been reported to suppress chemically-induced oxidative damage in rats. A total of 40 adult male albino Wistar rats were randomly divided into […] (n=8) and were subjected to different treatments. […]
For immunohistochemical staining, mounted sections were immersed in sodium citrate buffer (0.1 M, pH 6) and placed in a water bath for 15 minutes to unmask antigen epitopes. […] Ten fields were randomly selected to quantify positive cells, in individual samples (400×). […]

Setting [3] is: HCC (DEN/2-AAF) rats + safranal high dose 50 mg/kg b.wt. oral, 12 weeks.
Setting [4] is: HCC (DEN/2-AAF) rats + safranal low dose 25 mg/kg b.wt. oral, 12 weeks.
Where [5] appears, read: safranal alone 50 mg/kg b.wt. oral, no DEN (group 2).

For `CC1=C(C=O)C(C)(C)CC=C1` [Safranal, 2,6,6-trimethylcyclohexa-1,3-diene-1-carbaldehyde], in data set [1], the apoptosis entry is reported as “induce apoptosis”. Also, the P.Carbonyl was found to be 1.45 ± 0.06 nmol/mg protein in data set [2] (setting [3]), 1.61 ± 0.06 nmol/mg protein in data set [2] (setting [4]) and 1.52 ± 0.03 nmol/mg protein in data set [2] (setting [5]). In addition, the results for the CAT in the data set with catalase (CAT) (setting [3]), in the data set on catalase (CAT) (setting [4]) and with catalase (CAT) (setting [5]) were 145.4512 ± 4.57 unit/mg protein, 141.38 ± 0.91 unit/mg protein and 143.75 ± 1.2 unit/mg protein, respectively. The “number of Ki-67 positive cells” value with Ki-67 (low/high doses of safranal in animals exposed to DEN (groups 4-5)) is on record as “dramatically reduced the number of Ki-67 positive cells”. In addition, in the data set with Ki-67 (safranal alone (group 2)), the “number of Ki-67-expressing hepatocytes” value is listed as “did not induce a significant change”.
